Assay results from patent US11802120B2, “Fused cyclic urea derivatives as CRHR2 antagonist” (RaQualia Pharma Inc., priority 2018, dated 2023).

Molecular target: T1, human CRHR2-alpha (Homo sapiens, UniProt Q13324)
T1 sequence (Q13324 1-411): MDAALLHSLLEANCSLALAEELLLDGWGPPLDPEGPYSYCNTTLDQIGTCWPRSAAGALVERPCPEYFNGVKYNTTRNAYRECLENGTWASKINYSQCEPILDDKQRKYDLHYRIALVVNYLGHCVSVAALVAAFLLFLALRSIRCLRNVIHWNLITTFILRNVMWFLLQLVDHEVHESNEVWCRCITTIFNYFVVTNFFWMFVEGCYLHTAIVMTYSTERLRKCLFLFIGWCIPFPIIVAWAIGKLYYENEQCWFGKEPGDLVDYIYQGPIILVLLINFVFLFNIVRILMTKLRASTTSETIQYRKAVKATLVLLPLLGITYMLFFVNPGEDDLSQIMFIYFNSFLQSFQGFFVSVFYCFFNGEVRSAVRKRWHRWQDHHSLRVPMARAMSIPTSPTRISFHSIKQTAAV
Experiment: cAMP functional assay for human CRHR2 (LANCE Ultra cAMP, TR-FRET)
Type: cell-based
Settings: CHO-K1 cells expressing human CRHR2-alpha, agonist human urocortin2 at EC80, cAMP; read-out: IC50 against CRHR2
How it was run: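 Antagonism measured in CHO-K1 cells stably expressing the receptor, serum-starved 7 h then cryopreserved. Thawed cells in HBSS buffer with 0.1% BSA, 0.5 mM IBMX, 5 mM Hepes pH 7.4 were preincubated with compound 30 min at 25° C, then stimulated 30 min with EC80 agonist: urocortin2 for CRHR2, CRF for CRHR1.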

SMILES | IC50 [nM]
Cc1ncc(Cl)cc1C(=O)N[C@H]1CC[C@H](Cn2c(=O)n(-c3ccc4ncccc4c3)c3ccccc32)CC1 [Example 344, 5-chloro-2-methyl-N-((1r,4r)-4-((2-oxo-3-(quinolin-6-yl)-2,3-dihydro-1H-benzo[d]imidazol-1-yl)methyl)cyclo-hexyl)nicotinamide] | < 300
O=C(N[C@H]1CC[C@H](Cn2c(=O)n(-c3cccc4cccnc34)c3ccccc32)CC1)c1cc(Cl)cnc1C(F)F [Example 419, 5-chloro-2-(difluoromethyl)-N-((1r,4r)-4-((2-oxo-3-(quinolin-8-yl)-2,3-dihydro-1H-benzo [d]imidazol-1-yl)methyl)cyclo-hexyl)nicotinamide] | < 300
O=C(N[C@H]1CC[C@H](Cn2c(=O)n(-c3ccc(OC4COC4)nc3)c3ccccc32)CC1)c1cc(Cl)cnc1C(F)F [Example 478, 5-chloro-2-(difluoromethyl)-N-((1r,4r)-4-((3-(6-(oxetan-3-yloxy)pyridin-3-yl)-2-oxo-2,3-dihydro-1H-benzo[d]imidazol-1-yl)methyl)cyclohexyl)nicotinamide] | < 300
CCn1nnc2cc(-n3c(=O)n(C[C@H]4CC[C@H](NC(=O)c5cc(Cl)cnc5C)CC4)c4ccccc43)ccc21 [Example 304, 5-chloro-N-((1r,4r)-4-((3-(1-ethyl-1H-benzo[d][1,2,3]triazol-5-yl)-2-oxo-2,3-dihydro-1H-benzo[d]imidazol-1-yl)methyl)cyclo-hexyl)-2-methylnicotinamide] | < 300
Cc1ncc(Cl)cc1C(=O)N[C@H]1CC[C@H](Cn2c(=O)n(-c3ccc4c(C)noc4c3)c3ccccc32)CC1 [Example 171, 5-chloro-2-methyl-N-((1r,4r)-4-((3-(3-methylbenzo[d]isoxazol-6-yl)-2-oxo-2,3-dihydro-1H-benzo[d]imidazol-1-yl)methyl)cyclo-hexyl)nicotinamide] | < 300
Cc1ncc(Cl)cc1C(=O)N[C@H]1CC[C@H](Cn2c(=O)n(-c3cccc(-c4cnco4)c3)c3ccccc32)CC1 [Example 488, 5-chloro-2-methyl-N-((1r,4r)-4-((3-(3-(oxazol-5-yl)phenyl)-2-oxo-2,3-dihydro-1H-benzo[d]imidazol-1-yl)methyl)cyclo-hexyl)nicotinamide] | < 300
CNC(=O)c1ccc(-n2c(=O)n(C[C@H]3CC[C@H](NC(=O)c4cc(Cl)cnc4CC(F)F)CC3)c3ccccc32)cn1 [Example 349, 5-(3-(((1r,4r)-4-(5-chloro-2-(2,2-difluoroethyl)nicotina-mido)cyclohexyl)methyl)-2-oxo-2,3-dihydro-1H-benzo[d]imidazol-1-yl)-N-methyl-picolinamide] | < 300
O=C(N[C@H]1CC[C@H](Cn2c(=O)n(-c3ccc4nccnc4c3)c3ccccc32)CC1)c1cc(Cl)cnc1C(F)F [Example 495, 5-chloro-2-(difluoromethyl)-N-((1r,4r)-4-((2-oxo-3-(quinoxalin-6-yl)-2,3-dihydro-1H-benzo[d]imidazol-1-yl)methyl)cyclo-hexyl)nicotinamide] | < 300
COc1ccc(Cl)c(-n2c(=O)n(C[C@H]3CC[C@H](NC(=O)c4cc(Cl)cnc4C(F)F)CC3)c3cccnc32)c1 [Example 453, 5-chloro-N-((1r,4r)-4-((3-(2-chloro-5-methoxyphenyl)-2-oxo-2,3-dihydro-1H-imidazo [4,5-b]pyridin-1-yl)methyl)cyclohexyl)-2-(difluoromethyl) nicotinamide] | < 300
Cc1ncc(Cl)cc1C(=O)N[C@H]1CC[C@H](Cn2c(=O)n(C3COc4ccccc4C3)c3ccccc32)CC1 (stereo partly shown) [Example 167, 5-chloro-N-((1r,4r)-4-((3-(chroman-3-yl)-2-oxo-2,3-dihydro-1H-benzo[d]imidazol-1-yl)methyl)cyclo-hexyl)-2-methylnicotinamide] | < 300

Continued, values first:

IC50 [nM] | SMILES
< 300 | COc1ccc(-n2c(=O)n(C[C@H]3CC[C@H](NC(=O)c4cc(Cl)cnc4C(F)F)CC3)c3ncccc32)cc1F [Example 722, 5-chloro-2-(difluoromethyl)-N-((1r,4r)-4-((1-(3-fluoro-4-methoxyphenyl)-2-oxo-1H-imidazo[4,5-b]pyridin-3(2H)-yl)methyl)cyclohexyl) nicotinamide]
< 300 | Cc1ncc(Cl)cc1C(=O)N[C@H]1CC[C@H](Cn2c(=O)n(-c3ccc(N4CC(F)(F)C4)nc3)c3ccccc32)CC1 [Example 146, 5-chloro-N-((1r,4r)-4-((3-(6-(3,3-difluoroazetidin-1-yl)pyridin-3-yl)-2-oxo-2,3-dihydro-1H-benzo[d]imidazol-1-yl)methyl)cyclo-hexyl)-2-methylnicotinamide]
< 300 | O=C(N[C@H]1CC[C@H](Cn2c(=O)n(-c3cncc4ccccc34)c3ccccc32)CC1)c1cc(Cl)cnc1C(F)F [Example 418, 5-chloro-2-(difluoromethyl)-N-((1r,4r)-4-((3-(isoquinolin-4-yl)-2-oxo-2,3-dihydro-1H-benzo [d]imidazol-1-yl)methyl)cyclo-hexyl)nicotinamide]
< 300 | Cc1ncc(Cl)cc1C(=O)N[C@H]1CC[C@H](Cn2c(=O)n(-c3cccc(-c4cn[nH]c4)c3)c3ccccc32)CC1 [Example 696, N-((1r,4r)-4-((3-(3-(1H-pyrazol-4-yl)phenyl)-2-oxo-2,3-dihydro-1H-benzo[d]imidazol-1-yl)methyl)cyclohexyl)-5-chloro-2-methylnicotinamide]
< 300 | O=C(N[C@H]1CC[C@H](Cn2c(=O)n(-c3ccc(O[C@@H]4CCOC4)nc3)c3ccccc32)CC1)c1cc(Cl)cnc1C(F)F [Example 428, 5-chloro-2-(difluoromethyl)-N-((1R,4r)-4-((2-oxo-3-(6-(((R)-tetrahydrofuran-3-yl)oxy)pyridin-3-yl)-2,3-dihydro-1H-benzo[d]imidazol-1-yl)methyl)cyclohexyl)nicotinamide]
< 300 | Cc1ncc(Cl)cc1C(=O)N[C@H]1CC[C@H](Cn2c(=O)n(-c3ccc(-n4ccnn4)cc3)c3ccccc32)CC1 [Example 470, N-((1r,4r)-4-((3-(4-(1H-1,2,3-triazol-1-yl)phenyl)-2-oxo-2,3-dihydro-1H-benzo[d]imidazol-1-yl)methyl)cyclohexyl)-5-chloro-2-methylnicotinamide]
< 300 | Cc1ncc(Cl)cc1C(=O)N[C@H]1CC[C@H](Cn2c(=O)n(-c3cnccc3C#N)c3ccccc32)CC1 [Example 248, 5-chloro-N-((1r,4r)-4-((3-(4-cyanopyridin-3-yl)-2-oxo-2,3-dihydro-1H-benzo[d]imidazol-1-yl)methyl)cyclohexyl)-2-methylnicotinamide]
< 300 | N#Cc1cccnc1-n1c(=O)n(C[C@H]2CC[C@H](NC(=O)c3cc(Cl)cnc3C(F)F)CC2)c2ccccc21 [Example 375, 5-chloro-N-((1r,4r)-4-((3-(3-cyanopyridin-2-yl)-2-oxo-2,3-dihydro-1H-benzo[d]imidazol-1-yl)methyl)cyclohexyl)-2-(difluoromethyl)nicotinamide]
< 300 | Cc1ncc(Cl)cc1C(=O)N[C@H]1CC[C@H](Cn2c(=O)n(-c3cccc4c3cnn4C)c3ccccc32)CC1 [Example 347, 5-chloro-2-methyl-N-((1r,4r)-4-((3-(1-methyl-1H-indazol-4-yl)-2-oxo-2,3-dihydro-1H-benzo[d]imidazol-1-yl)methyl)cyclohexyl)nicotinamide]
